Tests used:
[1] = system: Membranen von weißen Blutzellen; test: Accumulation in membranes of white blood cells, detected by UV fluorescence; conditions: UV fluorescence of the molecule
Excerpt: (§1) Von 10 gesunden jungen Freiwilligen wurden Vollblut-Assays (s.o.) mit 4 verschiedenen Konzentrationen von Lisurid zusammen mit dem Stimulans (PHA) inkubiert. […] Dies läßt vermuten, daß es sich bei den Patientendaten nicht um kurzzeitige Effekte der Substanz auf die immunkompetenten Zellen (vor allem T-Lymphozyten und NK-Zellen) handelt. Vielmehr werden über Rezeptor/postrezeptorische Mechanismen Effekte auf die Freisetzung und/oder Synthese von IFN-γ und anderen Faktoren vermittelt. Auch ein direkter oder indirekter Effekt auf das Genom ist möglich. Für die therapeutische Anwendung erwünscht ist die beobachtete Anreicherung von Dopaminagonisten in den Membranen von weißen Blutzellen, wie sie im Falle von Lisurid durch die UV-Fluoreszenz dieses Moleküls nachweisbar ist.

IFN-γ = test: PHA-stimulated IFN-γ release in blood of patients treated with subcutaneous lisuride, ELISA of supernatant; assay type: in vivo, Patienten
Protocol: (§2) Wir untersuchten die mitogen-induzierte Zytokinfreisetzung von 18 Patienten, die wegen M. Parkinson (n=13) oder Dystonie (n=5) mit subkutanem Lisurid behandelt wurden. 18 Patienten wurden mit 11 gesunden altersgleichen Kontrollen verglichen. Nach mitogener Stimulation mit 50 µl Phythämagglutinin (PHA) (5 µg/ml) über 24 h (TNF-α) bzw. 72h (IFN-γ) wurden TNF-α und IFN-γ im Überstand mit einem Elisa Assay (Gallati 1987) bestimmt: Da die Daten nicht normal verteilt sind, wurde der Mann-Whitney-Test zur Analyse der Gruppenmittelwerte gerechnet. Es fanden sich folgende Ergebnisse:
(§3) Es wurde dieselbe Lisurid-Gruppe (n=18) wie o.a. mit zwei Gruppen gesunder Freiwilliger verglichen: Einer Gruppe junger (Alter unter 50 Jahre) und mit einer Gruppe älterer Gesunder (Alter über 65 Jahre). Die Zytokinmessung und statistische Auswertung erfolgte wie oben erwähnt. […] Dies legt den Schluß nahe, daß die alterskorreliert abnehmende IFN-γ und TNF-α Produktion durch dopaminerge Therapie antagonisiert werden kann.
(§4) Den Daten ist zu entnehmen, daß durch die Behandlung mit Lisurid nach Stimulation eine vermehrte Freisetzung von IFN-γ und TNF-α erfolgt. Die Freisetzung der Cytokine ist erst in vitro in einer Kurzzeit-Kultur des Vollblutes entstanden. In der Kontrollgruppe ohne PHA Zugabe ließ sich kein IFN-γ nachweisen. […]

Zytokin-Freisetzung = test: In vitro cytokine release in whole-blood assays co-incubated with lisuride and PHA; assay type: cell-based, gesunden jungen Freiwilligen; conditions: whole blood of 10 healthy young volunteers; without lisuride vs low, therapeutic and toxic lisuride concentration, together with PHA
Protocol: as §2, §1

[2] = Six-month continuous s.c. infusion at extremely high dose in monkeys; assay type: in vivo, Affen; conditions: monkey, 1 mg/kg/Tag s.c. infused continuously over 6 months (10-fold maximal human dose)
TNF-α = test: PHA-stimulated TNF-α release in blood of patients treated with subcutaneous lisuride, ELISA of supernatant; assay type: in vivo, Patienten
Protocol: as §2, §3, §4

Tumoren = test: Two-year treatment of rodents: tumour frequency and severity, survival; assay type: in vivo, Mäusen und Ratten; conditions: male and female mice and rats, various doses over 2 years; for Häufigkeit und Schwere von verschiedenen Tumoren: partly dose-dependent, leukaemias, lymphomas, tumours of mammae, pituitary, ovaries
Excerpt: In vivo-Untersuchungen an Nager-Gruppen von männlichen und weiblichen Mäusen und Ratten wurden mit verschiedenen Dosen von Lisurid und Tergurid über 2 Jahre behandelt. […] Dies läßt eine therapeutisch erwünschte lokale Freisetzung dieser Faktoren bei niederer Dosierung von Dopaminagonisten erwarten, die erst bei excessiver Dosierung zur Ausschwemmung ins Blut gelangt und damit die Nebenwirkung einer direkten IFN-γ-Anwendung bewirkt.

[3] = lisuride group (n=18, median age 61) vs young healthy group (under 50 years) and older healthy group (over 65 years)

Row | SMILES | Anreicherung in den Membranen von weißen Blutzellen [1] | IFN-γ Produktion nach mitogener Stimulation (IFN-γ; [3]) | IFN-γ Freisetzung nach PHA-Stimulation (IFN-γ; lisuride-treated patients (n=18, M. Parkinson or Dystonie) vs 11 healthy age-matched controls, PHA 72 h, Mann-Whitney p=0.039) | Zytokin-Freisetzung bei Koinkubation mit Lisurid (Zytokin-Freisetzung) | Befunde bei extrem hoher parenteraler Applikation [2] | α-TNF Produktion nach mitogener Stimulation (TNF-α; [3]) | TNF-α Freisetzung (TNF-α; lisuride-treated patients (n=18) vs 11 healthy age-matched controls, PHA 24 h, Mann-Whitney p=0.055) | Anteil überlebender Tiere (Tumoren) | Häufigkeit und Schwere von verschiedenen Tumoren (Tumoren)
1 | CCN(CC)C(=O)NC1C=C2c3cccc4[nH]cc(c34)CC2N(C)C1 (centres unmarked) [Lisurid] | nachweisbar | signifikant erhöht | signifikant erhöht | keine Unterschiede | wie sie für eine Überproduktion oder Freisetzung von IFN-γ und vergleichbarer Substanzen typisch sind | signifikant erhöht | deutlich erhöht | signifikante Erhöhung | signifikante Reduktion
2 | CCN(CC)C(=O)N[C@H]1C[C@@H]2c3cccc4[nH]cc(c34)C[C@H]2N(C)C1 [Tergurid] | – | – | – | – | – | – | – | signifikante Erhöhung | signifikante Reduktion

Reference: patent publication EP0664704B1, “USE OF DOPAMINE AGONISTS TO ACTIVATE GAMMA-[…]” (SCHERING AKTIENGESELLSCHAFT, priority 1992, dated 1994)
